According to PubChem BioAssay (NCI):
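Results reflect a 48-hour exposure of cells in 96-well plates to compound at five concentrations. GI50 marks 50% less growth. TGI marks complete inhibition of growth.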

Assays:
Assay in all cases: DTP human tumour cell line panel, 48 h
[1] = test system: UACC-257 melanoma
[2] = test system: K-562 leukemia
[3] = test system: SR leukemia
[4] = test system: LOX IMVI melanoma
[5] = test system: SNB-75 CNS
[6] = test system: SF-295 CNS
[7] = test system: KM12 colon
[8] = test system: HCC-2998 colon
[9] = test system: MALME-3M melanoma
[10] = test system: MDA-MB-435

SMILES | TGI [1] | TGI [2] | TGI [3] | TGI [4] | TGI [5] | TGI [6] | TGI [7] | TGI [8] | TGI [9] | TGI [10] | GI50 [1] | GI50 [4] | GI50 [5] | GI50 [6] | GI50 [7] | GI50 [10] | GI50 [8] | GI50 [9] | GI50 [3] | GI50 [2]
CC(C)[Si](OCC1CC(C#N)OC(C)(C)O1)(C(C)C)C(C)C (centres undefined) | 42.7 µM | 37.9 µM | 41.5 µM | 33.7 µM | > 100 µM | 29.3 µM | 35.9 µM | 38.4 µM | 57.6 µM |  |  |  |  |  |  |  |  |  |  | 
O=C(/C=C/c1ccccc1)CCC1C(=O)NC(=S)NC1=O | > 100 µM | > 100 µM |  | > 100 µM |  | > 100 µM |  | > 100 µM |  | > 100 µM |  |  |  |  |  |  |  |  |  | 
COc1ccc(NC(=O)C2C(=O)N(c3ccc(OC)cc3)C(=O)/C2=N\NC(N)=O)cc1 (centres undefined) | > 100 µM | > 100 µM |  | > 100 µM | 49.3 µM | > 100 µM | 43.2 µM | > 100 µM | 68.5 µM |  |  |  |  |  |  |  |  |  |  | 
COc1ccc(C)cc1C1CCC(=O)O1 (centres undefined) | > 100 µM | > 100 µM | > 100 µM | > 100 µM | > 100 µM | > 100 µM | > 100 µM | > 100 µM | > 100 µM |  |  |  |  |  |  |  |  |  |  | 
CCc1cc(Cc2ccc(C)c(NC(=O)C(=O)C3C(=O)NC(=O)NC3=O)c2CC)cc(C)c1NC(=O)C(=O)C1C(=O)NC(=O)NC1=O | > 100 µM | > 100 µM |  | > 100 µM | > 100 µM |  | > 100 µM | > 100 µM | > 100 µM |  |  |  |  |  |  |  |  |  |  | 
O=C(Cc1ccccc1)NN1C(=O)/C(=C\c2ccccc2O)SC1=Nc1ccccc1 | > 100 µM |  |  |  | > 100 µM | > 100 µM | > 100 µM | > 100 µM |  | > 100 µM |  |  |  |  |  |  |  |  |  | 
O=C1CCC(=O)c2sccc2N1 | > 100 µM | > 100 µM |  | > 100 µM | > 100 µM | > 100 µM | > 100 µM | > 100 µM | > 100 µM |  |  |  |  |  |  |  |  |  |  | 
CC(C)(C)Sc1nnc(SC(C)(C)C)c2c(=O)[nH]nc(SC(C)(C)C)c12 | 26.7 µM | 26.8 µM | 19.1 µM | 24.2 µM | 24.3 µM | 23.8 µM | 25.6 µM | 23.9 µM | 26.2 µM |  |  |  |  |  |  |  |  |  |  | 
CC(=O)Nc1ccc(-c2nnc(SCC(=O)Nc3ccc(Cl)cc3)o2)cc1 | 40.9 µM | > 100 µM |  | 22.4 µM | 39.7 µM | 25.2 µM | 29 µM | 37.5 µM | 29.4 µM |  |  |  |  |  |  |  |  |  |  | 
CCCCCCCCCCSC(=N)N | 6.32 µM |  |  | 9.37 µM | 4.44 µM | 3.51 µM | 6.5 µM | 3.31 µM | 6.59 µM | 4.01 µM | 2.51 µM | 2.76 µM | 1.79 µM | 1.72 µM | 2.45 µM | 1.77 µM | 1.72 µM | 2.32 µM |  | 
O=C(c1ccc2ccccc2c1)c1c(C(F)(F)F)n([O-])c2ccc(F)cc2[n+]1=O | 3.2 µM |  | 1.49 µM | 1.66 µM | 2.82 µM |  | 2.46 µM | 2.12 µM | 2.3 µM |  | 1.74 µM | 0.394 µM | 1.47 µM |  | 0.673 µM |  | 0.892 µM | 0.397 µM | 0.277 µM | 
CC(C)N1C(C)[C@@H](c2ccccc2)O[P@]1(=O)CC1=CCCCC1 (some centres undefined) | > 100 µM | > 100 µM | > 100 µM | > 100 µM | > 100 µM | > 100 µM | > 100 µM | > 100 µM | > 100 µM |  |  |  |  |  |  |  |  |  |  | 
S=c1c2ccccc2c(=S)n2n1CC=CC2 | > 100 µM | > 100 µM |  | > 100 µM | > 100 µM | > 100 µM | > 100 µM | > 100 µM | > 100 µM |  |  |  |  |  |  |  |  |  |  | 
COC(=O)C(=O)C(C(=O)C(=O)Nc1cc(Cl)c(Cl)cc1Cl)c1nc2ccc([N+](=O)[O-])cc2[nH]c1=O (centres undefined) | > 100 µM | > 100 µM | > 100 µM | > 100 µM |  | > 100 µM | > 100 µM | > 100 µM | > 100 µM |  |  |  |  |  |  |  |  |  |  | 
O=c1c2ccccc2nc(-c2ccccc2)n1NC(=S)Nc1cccc(Cl)c1 | > 100 µM | > 100 µM | > 100 µM | > 100 µM | 59.6 µM | > 100 µM | > 100 µM |  | > 100 µM |  |  |  |  |  |  |  |  |  |  | 
C/C(CC(=O)Nc1cccc([N+](=O)[O-])c1)=N\NC(=O)CC#N | > 100 µM | > 100 µM |  | > 100 µM | > 100 µM | > 100 µM | > 100 µM | > 100 µM | > 100 µM |  |  |  |  |  |  |  |  |  |  | 
O=CCCCC(Sc1ccccc1)Sc1ccccc1 | 48.5 µM | 76.6 µM | 48.3 µM | 26.6 µM | 35.9 µM | 40.7 µM | > 100 µM | 84 µM |  |  |  |  |  |  |  |  |  |  |  | 
C#CCOCn1cnc2ncnc(N)c21 | > 100 µM | > 100 µM | > 100 µM | > 100 µM | > 100 µM | > 100 µM | > 100 µM | > 100 µM | > 100 µM |  |  |  |  |  |  |  |  |  |  | 
COc1ccc2c([nH]c3c(O)c(-c4c(C)cc5c([nH]c6c(CC=C(C)C)c(OC)ccc65)c4O)c(C)cc32)c1CC=C(C)C | > 100 µM | > 100 µM | > 100 µM | > 100 µM | > 100 µM | > 100 µM | > 100 µM | > 100 µM | > 100 µM |  |  |  |  |  |  |  |  |  |  | 
CCOC(=O)CC(NC(=O)c1ccc(N=NN(C)C)cc1)C(=O)OCC (centres undefined) | > 100 µM | > 100 µM | > 100 µM | > 100 µM | > 100 µM | > 100 µM | > 100 µM | > 100 µM | > 100 µM |  |  |  |  |  |  |  |  |  |  | 
CC(=O)[C-](C(C)=O)c1ccccc1.CC(=O)[C-](C(C)=O)c1ccccc1.CC(=O)[C-](C(C)=O)c1ccccc1.[Cl-].[Zr+4] | > 100 µM | > 100 µM |  | > 100 µM | 83.9 µM | > 100 µM | > 100 µM |  | > 100 µM |  | > 100 µM | > 100 µM | 33 µM | > 100 µM | > 100 µM |  |  | > 100 µM |  | > 100 µM
CC(=O)c1c2c(cc3c1CC1(C3)Cc3cc4c(c(C(=O)O)c3C1)CCC4)CCC2 (centres undefined) | > 100 µM | 97.8 µM | 80.2 µM | > 100 µM | > 100 µM | > 100 µM | > 100 µM | > 100 µM | > 100 µM |  |  |  |  |  |  |  |  |  |  | 
